Our source for the IC50 values is patent US20240368135A1 (VERTEX PHARMACEUTICALS INCORPORATED, priority 2021, published 2024).

The term IC50 denotes the point on the concentration scale where inhibition reaches its midpoint.

In the first experiment the target is human NaV 1.8 (Homo sapiens, UniProt Q9Y5Y9). Description: E-VIPR assay detecting and measuring NaV inhibition properties. It counts as cell-based. The conditions noted are these: HEK cells expressing truncated human NaV 1.8; in the presence of human serum (compound numbers followed by *); read-out: IC50 in the E-VIPR Assay, performed in the presence of human serum. In a few lines: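 Membrane potential was followed by coumarin/oxonol FRET during electrical field stimulation of matrigel-seeded HEK cells carrying truncated human NaV1.8 plus KIR2.1. Dosing used 11 points, 3-fold steps, top 300 nM final, 0.625% DMSO, with or without 25% human serum.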
human NaV 1.8, sequence (Q9Y5Y9 126-399 limits assumed): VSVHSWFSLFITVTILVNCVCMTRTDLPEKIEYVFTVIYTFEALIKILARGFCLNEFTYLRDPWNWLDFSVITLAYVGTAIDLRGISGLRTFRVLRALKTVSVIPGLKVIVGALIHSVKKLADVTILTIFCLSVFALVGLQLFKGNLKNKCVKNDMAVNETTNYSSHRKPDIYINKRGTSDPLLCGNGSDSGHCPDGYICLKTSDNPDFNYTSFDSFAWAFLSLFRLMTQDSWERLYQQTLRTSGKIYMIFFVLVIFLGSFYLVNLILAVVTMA
human NaV 1.8, sequence (Q9Y5Y9 660-890 limits assumed): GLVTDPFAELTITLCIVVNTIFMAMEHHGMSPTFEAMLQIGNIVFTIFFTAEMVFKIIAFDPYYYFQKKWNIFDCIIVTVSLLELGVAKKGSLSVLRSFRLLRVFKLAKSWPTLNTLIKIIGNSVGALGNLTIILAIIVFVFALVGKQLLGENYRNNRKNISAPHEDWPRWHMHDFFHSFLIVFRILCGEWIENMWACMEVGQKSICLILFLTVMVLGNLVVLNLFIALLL
human NaV 1.8, sequence (Q9Y5Y9 1148-1722 limits assumed): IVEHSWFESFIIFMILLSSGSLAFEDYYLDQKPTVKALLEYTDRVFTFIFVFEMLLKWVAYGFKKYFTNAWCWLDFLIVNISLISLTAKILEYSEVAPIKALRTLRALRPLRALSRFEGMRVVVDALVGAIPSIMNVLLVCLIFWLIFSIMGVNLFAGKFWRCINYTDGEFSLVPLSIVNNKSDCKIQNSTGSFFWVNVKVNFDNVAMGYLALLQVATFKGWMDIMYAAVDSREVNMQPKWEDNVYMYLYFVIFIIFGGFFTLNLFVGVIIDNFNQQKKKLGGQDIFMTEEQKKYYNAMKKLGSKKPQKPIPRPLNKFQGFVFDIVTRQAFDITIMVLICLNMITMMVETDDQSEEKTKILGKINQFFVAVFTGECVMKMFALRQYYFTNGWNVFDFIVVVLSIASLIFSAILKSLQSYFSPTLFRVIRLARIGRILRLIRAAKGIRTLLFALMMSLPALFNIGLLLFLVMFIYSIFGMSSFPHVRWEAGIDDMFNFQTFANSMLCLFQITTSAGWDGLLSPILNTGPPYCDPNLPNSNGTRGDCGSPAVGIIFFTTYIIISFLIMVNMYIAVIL
In the case of `COc1c([C@@H]2C[C@](C)(C(F)(F)F)O[C@H]2C(=O)Nc2ccnc(C(O)CO)c2)ccc(F)c1F` (single isomer, unassigned) [Compound 685], the concentration for half-maximal inhibition (IC50) fell in the range of 10 to 100 nM.

Still in this experiment, the particulars now being: HEK cells expressing truncated human NaV 1.8; no human serum; read-out: IC50 in the E-VIPR Assay.
Take `C[C@H]1[C@@H](c2ccc(F)c(F)c2OC(F)F)[C@H](C(=O)Nc2ccc(C(N)=O)cc2)O[C@@]1(C)C(F)(F)F` (stereo in doubt) [Compound 74, rel-(2R,3S,4S,5R)-N-(4-carbamoylphenyl)-3-(2-(difluoromethoxy)-3,4-difluorophenyl)-4,5-dimethyl-5-(trifluoromethyl)tetrahydrofuran-2-carboxamide]: the half-inhibitory concentration (IC50) is less than 10 nM. Same read-out and setting: the figure for `COc1c([C@H]2[C@H](C(=O)Nc3ccnc(C4COCCN4C)c3)O[C@@](C)(C(F)(F)F)[C@H]2C)ccc(F)c1F` (single isomer, unassigned) [Compound 364, rel-(2R*,3S*,4S*,5R*)-3-(3,4-difluoro-2-methoxyphenyl)-4,5-dimethyl-N-(2-(4-methylmorpholin-3-yl)pyridin-4-yl)-5-(trifluoromethyl)tetrahydrofuran-2-carboxamide] is less than 10 nM.

On to `COc1c([C@H]2[C@H](C(=O)Nc3ccnc(CN4CCOCC4)c3)O[C@@](C)(C(F)(F)F)[C@H]2C)ccc(F)c1F` [Compound 181, (2R,3S,4S,5R)-3-(3,4-difluoro-2-methoxyphenyl)-4,5-dimethyl-N-(2-(morpholinomethyl)pyridin-4-yl)-5-(trifluoromethyl)tetrahydrofuran-2-carboxamide], for which the IC50 fell in the range of 10 to 100 nM. As to `COc1c(C2C(C(=O)Nc3ccnc(C(O)CO)c3)OC(C)(C(F)(F)F)C2C)ccc(F)c1F` (single isomer, unassigned) [Compound 43, 3-(3,4-difluoro-2-methoxy-phenyl)-N-[2-(1,2-dihydroxyethyl)-4-pyridyl]-4,5-dimethyl-5-(trifluoromethyl)tetrahydrofuran-2-carboxamide], the IC50 is not below 1000 nM. Same read-out and setting: to `COc1c([C@H]2[C@H](C(=O)Nc3ccnc(N4CCN(C)CC4=O)c3)O[C@@](C)(C(F)(F)F)[C@H]2C)ccc(F)c1C(F)F` (single isomer, unassigned) [Compound 162] belongs less than 10 nM.

Consider `C[C@H]1[C@@H](c2ccc(F)c(F)c2O)[C@H](C(=O)Nc2ccnc(CO)c2)O[C@@]1(C)C(F)(F)F` [Compound 638, (2R,3S,4S,5R)-3-(3,4-difluoro-2-hydroxyphenyl)-N-(2-(hydroxymethyl)pyridin-4-yl)-4,5-dimethyl-5-(trifluoromethyl)tetrahydrofuran-2-carboxamide], for which the half-maximal inhibitory concentration (IC50) fell in the range of 10 to 100 nM. Still for that read-out and setting: to `COc1c([C@H]2[C@H](C(=O)Nc3ccc(S(C)(=N)=O)nc3)O[C@@](C)(C(F)(F)F)[C@H]2C)ccc(F)c1F` (single isomer, unassigned) [Compound 336, rel-(2R*,3S*,4S*,5R*)-3-(3,4-difluoro-2-methoxyphenyl)-4,5-dimethyl-N-(6-(S-methylsulfonimidoyl)-pyridin-3-yl)-5-(trifluoromethyl)-tetrahydrofuran-2-carboxamide] belongs less than 10 nM; to `COC[C@@H](O)Cc1cc(NC(=O)[C@@H]2O[C@@](C)(C(F)(F)F)[C@@H](C)[C@H]2c2ccc(F)c(F)c2OC)ccn1` [Compound 369, (2R,3S,4S,5R)-3-(3,4-difluoro-2-methoxyphenyl)-N-(2-((S)-2-hydroxy-3-methoxypropyl)pyridin-4-yl)-4,5-dimethyl-5-(trifluoromethyl)tetrahydrofuran-2-carboxamide], less than 10 nM; to `Cc1nocc1NC(=O)[C@@H]1O[C@@](C)(C(F)(F)F)[C@@H](C)[C@H]1c1ccc(F)c(F)c1OCCN1CC(F)C1` [Compound 625, (2R,3S,4S,5R)-3-(3,4-difluoro-2-(2-(3-fluoroazetidin-1-yl)ethoxy)phenyl)-4,5-dimethyl-N-(3-methylisoxazol-4-yl)-5-(trifluoromethyl)tetrahydrofuran-2-carboxamide], less than 10 nM. On to `COc1c([C@H]2[C@H](C(=O)Nc3cc4n(n3)CCOC4)O[C@@](C)(C(F)(F)F)[C@H]2C)ccc(F)c1F` [Compound 321, (2R,3S,4S,5R)-3-(3,4-difluoro-2-methoxyphenyl)-N-(6,7-dihydro-4H-pyrazolo[5,1-c][1,4]oxazin-2-yl)-4,5-dimethyl-5-(trifluoromethyl)-tetrahydrofuran-2-carboxamide], for which the 50% inhibitory concentration (IC50) is not below 1000 nM. On to `Cc1nn(C(F)F)cc1NC(=O)[C@@H]1O[C@@](C)(C(F)(F)F)[C@@H](C)[C@H]1c1ccc(F)c(F)c1CN1CC(O)C1` (racemic) [Compound 673, rac-(2R,3S,4S,5R)-3-(3,4-difluoro-2-((3-hydroxyazetidin-1-yl)methyl)phenyl)-N-(1-(difluoromethyl)-3-methyl-1H-pyrazol-4-yl)-4,5-dimethyl-5-(trifluoromethyl)tetrahydrofuran-2-carboxamide], for which the IC50 fell in the range of 100 to 1000 nM.

For `C[C@H]1[C@@H](c2ccc(F)c(F)c2OCC2COC2)[C@H](C(=O)Nc2ccc3cnnn3c2)O[C@@]1(C)C(F)(F)F` [Compound 621, (2R,3S,4S,5R)-3-[3,4-difluoro-2-(oxetan-3-ylmethoxy)phenyl]-4,5-dimethyl-N-(triazolo[1,5-a]pyridin-6-yl)-5-(trifluoromethyl)tetrahydrofuran-2-carboxamide], the 50% inhibitory concentration (IC50) was less than 10 nM.

For `COc1c([C@H]2[C@H](C(=O)Nc3cn(C4COC4)nc3C)O[C@@](C)(C(F)(F)F)[C@H]2C)ccc(F)c1F` (single isomer, unassigned) [Compound 330], the IC50 is less than 10 nM. Take `COc1c([C@H]2[C@H](C(=O)Nc3ccnc(C(C)(O)CF)c3)O[C@@](C)(C(F)(F)F)[C@H]2C)ccc(F)c1F` (single isomer, unassigned) [Compound 226, rel-(2R*,3S*,4S*,5R*)-3-(3,4-difluoro-2-methoxyphenyl)-N-(2-(1-fluoro-2-hydroxypropan-2-yl)pyridin-4-yl)-4,5-dimethyl-5-(trifluoromethyl)tetrahydrofuran-2-carboxamide]: the IC50 was less than 10 nM. For the molecule `Cc1nn(C(F)F)cc1NC(=O)[C@@H]1O[C@@](C)(C(F)(F)F)[C@@H](C)[C@H]1c1ccc(F)c(F)c1OCCN1CC2(COC2)C1` [Compound 598, (2R,3S,4S,5R)-3-(2-(2-(2-oxa-6-azaspiro[3.3]heptan-6-yl)ethoxy)-3,4-difluorophenyl)-N-(1-(difluoromethyl)-3-methyl-1H-pyrazol-4-yl)-4,5-dimethyl-5-(trifluoromethyl)tetrahydrofuran-2-carboxamide], the IC50 lay in the range of 10 to 100 nM. Take `Cc1nn(C(F)F)cc1NC(=O)[C@@H]1O[C@@](C)(C(F)(F)F)[C@@H](C)[C@H]1c1ccc(F)c(F)c1OCc1cn[nH]c1` [Compound 599, (2R,3S,4S,5R)-N-[1-(difluoromethyl)-3-methyl-pyrazol-4-yl]-3-[3,4-difluoro-2-(1H-pyrazol-4-ylmethoxy)phenyl]-4,5-dimethyl-5-(trifluoromethyl)tetrahydrofuran-2-carboxamide]: the 50% inhibitory concentration (IC50) was less than 10 nM. `COc1c([C@H]2[C@H](C(=O)Nc3ccnc(CN4CCC[C@H]4CO)c3)O[C@@](C)(C(F)(F)F)[C@H]2C)ccc(F)c1F` [Compound 386, (2R,3S,4S,5R)-3-(3,4-difluoro-2-methoxyphenyl)-N-(2-(((S)-2-(hydroxymethyl)pyrrolidin-1-yl)methyl)pyridin-4-yl)-4,5-dimethyl-5-(trifluoromethyl)tetrahydrofuran-2-carboxamide]: the IC50 is less than 10 nM. Still for that read-out and setting: the figure for `COc1c([C@H]2[C@H](C(=O)Nc3ccc(C(N)=O)nc3)O[C@@](C)(C(F)(F)F)[C@H]2C)ccc(OC(F)F)c1F` [Compound 682, 5-((2R,3S,4S,5R)-3-(4-(difluoromethoxy)-3-fluoro-2-methoxyphenyl)-4,5-dimethyl-5-(trifluoromethyl)tetrahydrofuran-2-carboxamido)picolinamide] is less than 10 nM.

On to `COc1c([C@H]2[C@H](C(=O)Nc3cncn3C)O[C@@](C)(C(F)(F)F)[C@H]2C)ccc(F)c1F` [Compound 313, (2R,3S,4S,5R)-3-(3,4-difluoro-2-methoxyphenyl)-4,5-dimethyl-N-(1-methyl-1H-imidazol-5-yl)-5-(trifluoromethyl)-tetrahydrofuran-2-carboxamide], for which the IC50 was 10 to 100 nM. Take `Cc1nocc1NC(=O)[C@@H]1O[C@@](C)(C(F)(F)F)[C@@H](C)[C@H]1c1ccc(F)c(F)c1OCCN[C@@H]1CCOC1` [Compound 632, (2R,3S,4S,5R)-3-(3,4-difluoro-2-(2-(((R)-tetrahydrofuran-3-yl)amino)ethoxy)phenyl)-4,5-dimethyl-N-(3-methylisoxazol-4-yl)-5-(trifluoromethyl)tetrahydrofuran-2-carboxamide]: the 50% inhibitory concentration (IC50) was 10 to 100 nM.

On to `COc1c([C@H]2[C@H](C(=O)Nc3ccnc(N4CC[C@H](O)C4=O)c3)O[C@@](C)(C(F)(F)F)[C@H]2C)ccc(F)c1F` [Compound 473, (2R,3S,4S,5R)-3-(3,4-difluoro-2-methoxyphenyl)-N-(2-((S)-3-hydroxy-2-oxopyrrolidin-1-yl)pyridin-4-yl)-4,5-dimethyl-5-(trifluoromethyl)tetrahydrofuran-2-carboxamide], for which the IC50 lay in the range of 10 to 100 nM. In the case of `C[C@@H]1CN(C)CC(=O)N1c1cc(NC(=O)[C@@H]2O[C@@](C)(C(F)(F)F)[C@@H](C)[C@H]2c2ccc(F)c(F)c2OCCO)ccn1` [Compound 653, (2R,3S,4S,5R)-3-(3,4-difluoro-2-(2-hydroxyethoxy)phenyl)-N-(2-((R)-2,4-dimethyl-6-oxopiperazin-1-yl)pyridin-4-yl)-4,5-dimethyl-5-(trifluoromethyl)tetrahydrofuran-2-carboxamide], the IC50 was 10 to 100 nM. On the same count and under the same terms, to `C[C@H]1[C@@H](c2ccc(F)c(F)c2OC(F)F)[C@H](C(=O)Nc2ccnc(CC(C)(C)O)c2)O[C@@]1(C)C(F)(F)F` (single isomer, unassigned) [Compound 464] belongs 10 to 100 nM.
